In ChEMBL document CHEMBL5033993, “Design, Synthesis, and Evaluation of o-(Biphenyl-3-ylmethoxy)nitrophenyl Derivatives as PD-1/PD-L1 Inhibitors with Potent Anticancer Efficacy In Vivo” (J Med Chem, 2021):
The source made the active and inactive calls. The calls are words filed in the database; no cut-off is given here.

Columns and labels:
Mus musculus [1] = assay: Toxicity in C57BL6 mouse allografted with mouse lewis lung carcinoma cells assessed as reduction body weight at 5 mg/kg, ig for 21 days; type: organism-based; conditions: in vivo, po, 504 h, time 21 day
Mus musculus [2] = assay: Upregulation of IFNgamma protein expression in C57BL6 mouse serum allografted with mouse lewis lung carcinoma cells at 2.5 to 5 mg/kg, ig for 21 days by ELISA; type: functional, organism-based; conditions: dose 2.5-5 mg/kg, time 21.0 day
[3] = Anti-tumor activity against mouse lewis lung carcinoma cells allografted in C57BL6 mouse assessed as reduction in tumor growth at 2 mg/kg, ig for 21 days relative to control; type: functional; conditions: po, 504 h, time 21 day, read-out: TGI
Lewis lung carcinoma [4] = assay: Immunostimulatory activity in mouse lewis lung carcinoma cells allografted in C57BL6 mouse assessed as increase in infiltration of total immune cells at 2 to 5 mg/kg, ig for 21 days by Flow cytometric analysis; type: functional, organism-based; conditions: dose 2-5 mg/kg, time 21.0 day
[5] = Cytotoxicity against mouse lewis lung carcinoma cells assessed as reduction in cell viability at 0.3 to 3000 nM and measured after 24 to 72 hrs by MTT assay; type: cell-based; conditions: 3 µM, dose lower 0.3 nM, time lower 24 hrs, dose upper 3000 nM, time upper 72 hrs
[6] = biological target: T1, Programmed cell death protein 1/Programmed cell death 1 ligand 1 (Homo sapiens, UniProt Q15116+Q9NZQ7); assay: Potency index, ratio of BMS-202 IC50 to test compound IC50 for inhibition of human PD-1/PD-L1 interaction assessed as disruption of PD-1/PD-L1 complex incubated for 2 hrs by Tag-1 Eu3+ and anti-Tag2-XL665 based HTRF assay; type: protein-complex assay
Lewis lung carcinoma [7] = assay: Anti-tumor activity against mouse lewis lung carcinoma cells allografted in C57BL6 mouse assessed as reduction in tumor growth at 2 to 5 mg/kg, ig for 21 days; type: functional, organism-based; conditions: dose 2-5 mg/kg, time 21.0 day
Lewis lung carcinoma [8] = assay: Anti-tumor activity against mouse lewis lung carcinoma cells allografted in C57BL6 mouse assessed as reduction PCNA protein expression level at 2 to 5 mg/kg, ig for 21 days by immunohistochemistry analysis; type: functional, organism-based; conditions: dose 2-5 mg/kg, time 21.0 day
[9] = Anti-tumor activity against mouse lewis lung carcinoma cells allografted in C57BL6 mouse assessed as reduction in tumor growth at 5 mg/kg, ig for 21 days relative to control; type: functional; conditions: po, 504 h, time 21 day, read-out: TGI
T-cell [10] = assay: Cytotoxicity against C57BL6 mouse lymphnode T cell cells assessed as reduction in cell viability at 3000 nM and measured after 24 to 72 hrs by MTT assay; type: cell-based; conditions: 3 µM, time 24-72 hrs
PBMC [11] = assay: Upregulation of IFNgamma protein expression in CD3/CD28/PD-L1 stimulated PBMC (unknown origin) at 0.3 to 30 nM by ELISA; type: functional, tissue-based; conditions: Homo sapiens, dose 0.3-30 nM
[12] = biological target: Programmed cell death 1 ligand 1 (Mus musculus) (UniProt Q9EP73); assay: Binding affinity to PDL1 in mouse lewis lung carcinoma cells assessed as thermal stability at 0.1 to 100 nM at 58 degC after 12 hrs by CESTA analysis; type: tissue-based; conditions: Lewis lung carcinoma cell line, dose 0.1-100 nM
[13] = biological target: T1, Programmed cell death protein 1/Programmed cell death 1 ligand 1; assay: Inhibition of human PD-1/PD-L1 interaction assessed as disruption of PD-1/PD-L1 complex incubated for 2 hrs by Tag-1 Eu3+ and anti-Tag2-XL665 based HTRF assay; type: protein-complex assay
Lewis lung carcinoma [14] = assay: Immunostimulatory activity in mouse lewis lung carcinoma cells allografted in C57BL6 mouse assessed as increase in infiltration of T cells at 2 to 5 mg/kg, ig for 21 days by Flow cytometric analysis; type: functional, organism-based; conditions: dose 2-5 mg/kg, time 21.0 day
Mus musculus [15] = assay: Toxicity in C57BL6 mouse allografted with mouse lewis lung carcinoma cells assessed as reduction body weight at 2 mg/kg, ig for 21 days; type: organism-based; conditions: in vivo, po, 504 h, time 21 day
Lewis lung carcinoma [16] = assay: Immunostimulatory activity in mouse lewis lung carcinoma cells allografted in C57BL6 mouse assessed as increase in infiltration of IFNgamm+/CD4+ cells at 2 to 5 mg/kg, ig for 21 days by Flow cytometric analysis; type: functional, organism-based; conditions: dose 2-5 mg/kg, time 21.0 day
PBMC [17] = assay: Induction of immuno-regulatory activity in CD3/CD28/PD-L1 stimulated PBMC (unknown origin) at 0.3 to 30 nM by Western blot analysis; type: functional, tissue-based; conditions: Homo sapiens, dose 0.3-30 nM
Lewis lung carcinoma [18] = assay: Induction of apoptosis in mouse lewis lung carcinoma cells allografted in C57BL6 mouse assessed as Increase in TUNEL positive cells at 2 to 5 mg/kg, ig for 21 days by TUNEL assay; type: functional, organism-based; conditions: dose 2-5 mg/kg, time 21.0 day
[19] = biological target: Programmed cell death 1 ligand 1 (Mus musculus) (UniProt Q9EP73); assay: Binding affinity to PDL1 in mouse lewis lung carcinoma cells assessed as thermal stability at 3 nM at 43 to 70 degC after 12 hrs by CESTA analysis; conditions: Lewis lung carcinoma cell line
T-cell [20] = assay: Upregulation of IFNgamma protein expression in CON-A stimulated C57BL6 mouse lymphnode T cell co-cultured with Lewis lung carcinoma cell line at 0.3 to 30 nM by ELISA; type: functional, tissue-based; conditions: dose 0.3-30 nM
Lewis lung carcinoma [21] = assay: Immunostimulatory activity in mouse lewis lung carcinoma cells allografted in C57BL6 mouse assessed as increase in infiltration of CD8+/CD45+/CD3+ cells at 2 to 5 mg/kg, ig for 21 days by Flow cytometric analysis; type: functional, organism-based; conditions: dose 2-5 mg/kg, time 21.0 day
Lewis lung carcinoma [22] = assay: Immunostimulatory activity in mouse lewis lung carcinoma cells allografted in C57BL6 mouse assessed as increase in infiltration of CD8+ cells at 2 to 5 mg/kg, ig for 21 days by Flow cytometric analysis; type: functional, organism-based; conditions: dose 2-5 mg/kg, time 21.0 day

Sequence of Programmed cell death 1 ligand 1 (Mus musculus) (Q9EP73 whole entry): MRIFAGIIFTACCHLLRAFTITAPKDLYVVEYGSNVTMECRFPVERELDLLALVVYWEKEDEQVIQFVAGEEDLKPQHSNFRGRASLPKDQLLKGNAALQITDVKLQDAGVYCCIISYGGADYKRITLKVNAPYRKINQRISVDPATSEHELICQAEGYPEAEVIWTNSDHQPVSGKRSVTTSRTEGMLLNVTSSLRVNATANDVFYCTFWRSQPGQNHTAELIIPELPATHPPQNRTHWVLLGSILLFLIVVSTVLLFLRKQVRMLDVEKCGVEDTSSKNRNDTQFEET
T1 sequence (Q15116 whole entry): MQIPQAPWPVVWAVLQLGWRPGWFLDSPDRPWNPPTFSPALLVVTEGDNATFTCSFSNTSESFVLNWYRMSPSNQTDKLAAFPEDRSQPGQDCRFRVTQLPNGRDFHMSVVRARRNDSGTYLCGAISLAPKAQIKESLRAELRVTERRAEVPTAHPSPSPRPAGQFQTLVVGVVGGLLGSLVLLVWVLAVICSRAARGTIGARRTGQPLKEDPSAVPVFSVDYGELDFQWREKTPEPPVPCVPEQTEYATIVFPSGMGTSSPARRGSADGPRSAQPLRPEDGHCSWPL
T1 sequence (Q9NZQ7 whole entry): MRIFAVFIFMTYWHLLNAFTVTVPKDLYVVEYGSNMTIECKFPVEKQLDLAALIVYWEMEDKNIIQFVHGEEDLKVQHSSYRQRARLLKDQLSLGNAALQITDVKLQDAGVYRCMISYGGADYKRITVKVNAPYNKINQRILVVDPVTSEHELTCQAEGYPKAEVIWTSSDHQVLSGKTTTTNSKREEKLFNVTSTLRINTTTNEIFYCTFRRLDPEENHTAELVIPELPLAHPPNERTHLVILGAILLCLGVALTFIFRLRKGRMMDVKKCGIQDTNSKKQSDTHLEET

Question: For `Cc1c(COc2cc(OCc3cccc(C#N)c3)c(CN[C@H](C(=O)O)[C@@H](C)O)cc2[N+](=O)[O-])cccc1-c1ccccc1`, which Activity (Mus musculus [1]) is on record?
Answer: Non-Toxic

Question: And the Activity (Mus musculus [2])?
Answer: Dose-Dependent Effect

Question: What about the inhibition in vivo at 2 mg/kg [3] of the same molecule?
Answer: 17.3%

Question: And the Activity (Lewis lung carcinoma [4])?
Answer: Active

Question: And the Activity [5]?
Answer: Non-Toxic

Question: What about the Ratio IC50 [6] of the same molecule?
Answer: 25

Question: And the TGI (Lewis lung carcinoma [7])?
Answer: Dose-Dependent Effect

Question: And the Activity (Lewis lung carcinoma [8])?
Answer: Dose-Dependent Effect

Question: What about the inhibition in vivo at 5 mg/kg [9] of the same molecule?
Answer: 48.5%

Question: What about the Activity (T-cell [10]) of the same molecule?
Answer: Non-Toxic

Question: What about the Activity (PBMC [11]) of the same molecule?
Answer: Dose-Dependent Effect

Question: What about the Activity [12] of the same molecule?
Answer: Dose-Dependent Effect

Question: And the IC50 [13]?
Answer: 2.7 nM

Question: And the Activity (Lewis lung carcinoma [14])?
Answer: Active

Question: What about the Activity (Mus musculus [15]) of the same molecule?
Answer: Non-Toxic

Question: And the Activity (Lewis lung carcinoma [16])?
Answer: Active

Question: What about the Activity (PBMC [17]) of the same molecule?
Answer: Dose-Dependent Effect

Question: What about the Activity (Lewis lung carcinoma [18]) of the same molecule?
Answer: Dose-Dependent Effect

Question: And the Activity [19]?
Answer: Active

Question: And the Activity (T-cell [20])?
Answer: Dose-Dependent Effect

Question: What about the Activity (Lewis lung carcinoma [21]) of the same molecule?
Answer: Active

Question: What about the Activity (Lewis lung carcinoma [22]) of the same molecule?
Answer: Active
